Measured values reported in patent US20120165319A1, “INHIBITORS OF INTERLEUKIN-1 BETA CONVERTING ENZYME” (VERTEX PHARMACEUTICALS INCORPORATED, priority 1995, published 2012).

Experiments:
ICE = target: T1, ICE (Homo sapiens, UniProt P29466); experiment: Enzyme assay with UV-visible substrate (visible ICE assay, Succinyl-Tyr-Val-Ala-Asp-pNitroanilide); assay type: biochemical; details: Table 17
T1 sequence (P29466 120-297 limits assumed): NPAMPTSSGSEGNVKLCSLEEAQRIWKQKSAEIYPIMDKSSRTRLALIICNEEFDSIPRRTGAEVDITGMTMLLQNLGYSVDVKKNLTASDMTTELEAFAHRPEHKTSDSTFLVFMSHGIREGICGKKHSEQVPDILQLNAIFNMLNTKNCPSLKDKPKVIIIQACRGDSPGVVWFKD
T1 sequence (P29466 317-404 limits assumed): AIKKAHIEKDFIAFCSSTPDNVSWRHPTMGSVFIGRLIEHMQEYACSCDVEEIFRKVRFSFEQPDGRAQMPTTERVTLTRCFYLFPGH
Method in brief: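 Buffer, ICE and inhibitor in DMSO are combined and held 15 min at room temperature. Succinyl-Tyr-Val-Ala-Asp-pNA is then added and absorbance at 405-603 nm tracked for 20 min at 37° C.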

[1] = system: IL-1β, human peripheral blood mononuclear cells (PBMC); experiment: PBMC cell assay: IL-1β assay with human PBMC or enriched adherent mononuclear cells, LPS-stimulated; assay type: cell-based; details: Homo sapiens, PBMC, Table 17
Method in brief: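 Mature IL-1β is measured by ELISA in supernatants after 16–18 hr at 37 °C, 5% CO2, with LPS (5 ng/ml final) and test compound (0.1% DMSO final). Cells are human PBMC (6×10^6 cells/ml) or plate-adherent mononuclear cells (2.5−3.0×10^5 per well), and the 5–6 compound concentrations span the ICE Ki.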

IL-1β, human whole blood = experiment: Whole blood assay for IL-1β production; assay type: cell-based; details: Homo sapiens, Table 17; read-out: Whole human blood IC50
Method in brief: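 IL-1β was quantified by ELISA in plasma diluted 1:200. The plasma came from EDTA-anticoagulated human whole blood incubated at 30 °C for 16-18 h with LPS (final 5.0 ng/ml) plus a saline serial dilution of compound. Controls were no-LPS, no-inhibitor and highest-vehicle.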

SMILES | Ki (ICE) | IC50 [1] | IC50 (IL-1β, human whole blood)
COc1cccc(OC)c1C(=O)C(=O)N[C@H]1CN(C(=O)CO)c2ccccc2N(CC(=O)N[C@H](C=O)CC(=O)O)C1=O [Compound 678] | 5 nM | 2700 nM | 2200 nM
O=C[C@H](CC(=O)O)NC(=O)CN1C(=O)[C@@H](NC(=O)C(=O)c2ccccc2)CN(C(=O)CO)c2ccccc21 [Compound 681, (3S)-3-[(3S)-2-Oxo-3-benzoylformylamino-5-(2-hydroxy)acetyl-2,3,4,5-tetrahydro-1H-1,5-benzodiazepine-1-acetylamino]-4-oxo-butyric acid] | 9 nM | 3000 nM | 5000 nM
CC(=O)OCC(=O)N1C[C@H](NC(=O)c2ccccc2)C(=O)N(CC(=O)N[C@H](C=O)CC(=O)O)c2ccccc21 [Compound 683, (3S)-3-[(3S)-2-Oxo-3-benzoylamino-5-(2-acetoxy)acetyl-2,3,4,5-tetrahydro-1H-1,5-benzodiazepine-1-acetylamino]-4-oxo-butyric acid] | 400 nM | > 20000 nM | > 20000 nM
COc1c(C)cc(C(=O)N[C@H]2CN(C(C)=O)c3ccccc3N(CC(=O)N[C@H](C=O)CC(=O)O)C2=O)cc1C [Compound 684, (3S)-3-[(3S)-2-Oxo-3-(3,5-dimethyl-4-methoxybenzoyl)amino-5-acetyl-2,3,4,5-tetrahydro-1H-1,5-benzodiazepine-1-acetylamino]-4-oxo-butyric acid] | 15 nM | 5000 nM | 2800 nM
Nc1ccc(C(=O)N[C@H]2CN(C(=O)CO)c3ccccc3N(CC(=O)N[C@H](C=O)CC(=O)O)C2=O)cc1Cl [Compound 686] | 4 nM | 4000 nM | 9000 nM
COCC(=O)N1C[C@H](NC(=O)c2cc(Cl)c(O)c(Cl)c2)C(=O)N(CC(=O)N[C@H](C=O)CC(=O)O)c2ccccc21 [Compound 689a, (3S)-3-[(3S)-2-Oxo-3-(3,5-dichloro-4-hydroxybenzoyl)amino-5-methoxyacetyl-2,3,4,5-tetrahydro-1H-1,5-benzodiazepine-1-acetylamino]-4-oxo-butyric acid] | 0.8 nM | 910 nM | 2500 nM
COCC(=O)N1C[C@H](NC(=O)c2cc(C)c(O)c(C)c2)C(=O)N(CC(=O)N[C@H](C=O)CC(=O)O)c2ccccc21 [Compound 689b, (3S)-3-[(3S)-2-Oxo-3-(3,5-dimethyl-4-hydroxybenzoyl)amino-5-methoxyacetyl-2,3,4,5-tetrahydro-1H-1,5-benzodiazepine-1-acetylamino]-4-oxo-butyric acid] | 2.2 nM | 600 nM | 2000 nM
O=C[C@H](CC(=O)O)NC(=O)CN1C(=O)[C@@H](NC(=O)c2ccc(O)cc2)CN(C(=O)CO)c2ccccc21 [Compound 691b, (3S)-3-[(3S)-2-Oxo-3-(4-hydroxybenzoyl)amino-5-hydroxyacetyl-2,3,4,5-tetrahydro-1H-1,5-benzodiazepine-1-acetylamino]-4-oxo-butyric acid] | 11.5 nM | 1900 nM | 1400 nM
COc1c(C)cc(C(=O)N[C@H]2CN(C(=O)CO)c3ccccc3N(CC(=O)N[C@H](C=O)CC(=O)O)C2=O)cc1C [Compound 694, (3S)-3-[(3S)-2-Oxo-3-(3,5-dimethyl-4-methoxybenzoyl)amino-5-hydroxyacetyl-2,3,4,5-tetrahydro-1H-1,5-benzodiazepine-1-acetylamino-]4-oxo-butyric acid] | 3 nM | 2600 nM | 2100 nM
CC(=O)N1C[C@H](NC(=O)C(=O)c2ccc3c(c2)OCO3)C(=O)N(CC(=O)N[C@H](C=O)CC(=O)O)c2ccccc21 [Compound 702] | 45 nM | > 5000 nM | 20000 nM
CC(=O)N1C[C@H](NC(=O)C(=O)c2c[nH]c3ccccc23)C(=O)N(CC(=O)N[C@H](C=O)CC(=O)O)c2ccccc21 [Compound 703] | 5 nM | 1400 nM | 20000 nM
COc1ccc(C(=O)C(=O)N[C@H]2CN(C(C)=O)c3ccccc3N(CC(=O)N[C@H](C=O)CC(=O)O)C2=O)cc1 [Compound 704] | 30 nM | 2600 nM | 9800 nM
